Where a SMILES comes first, the peptide text is derived from it.
What was measured:
α4β1 = molecular target: T1, α4β1 (Homo sapiens, UniProt P05556+P13612); assay: α4β1-VCAM Competition ELISA; format: binding; conditions: thioether peptide dimers, Table 7; read-out: ELISA A4B1
T1 construct: purchased R&D Systems 5668-A4
Method: α4β1-VCAM Competition ELISA
A Nunc MaxiSorp plate was coated with rh VCAM-1/CD106 Fc chimera (R&D #862-VC) at 400 ng/well in 50 ul per well in 1×PBS and incubated overnight at 4° C. The solution was removed by shaking and then blocked with 250 ul of 1% BSA in 1×PBS per well. The wells were then incubated at room temperature for 1 hr with shaking. Each well was then washed once with wash buffer (50 mM Tris-HCl pH7.6, 100 mM NaCL, 1 mM MnCl2 or MgCl2, 0.05% Tween-20). 25 ul of serial dilutions of peptides starting at 200 μM in assay buffer (Assay buffer: 50 mM Tris-HCl pH7.6, 100 mM NaCl, 1 mM MnCl2 or MgCl2, 0.05% Tween-20) was added to each well. Additionally, 25 μl of α4β1 (R&D Systems #5668-A4) was added to each well at a fixed concentration of 120 nM. The final peptide and α4β1 concentrations were 100 μM and 60 nM, respectively. The plates were then incubated at 37° C. for 2 hr. The solution was then removed by shaking and each well was washed three times with wash buffer. 50 ul of 9F10 antibody at 4 ug/ml (purified mouse anti-human CD49d, BD Bioscience Cat #555502) was then added to each well, and the plate was incubated at room temperature for Ihr with shaking. The solution was again removed by shaking, and each well was washed three times with wash buffer. 50 μl of peroxidase-conjugated AffiniPure Goat anti-mouse IgG (Jackson immune research cat #115-035-003) diluted in 1:5000 in assay buffer was added to each well. The plate was incubated at room temperature for 30 min with shaking. Each well was then washed 3 times with wash buffer. 100 ul of TMB was then added to each well and closely observe during developing time. The reaction was stepped with 2N H2SO4 and absorbance was read at 450 nm.

Jurkat E6.1 cells = Jurkat E6.1 cells (Homo sapiens, UniProt P05556+P13612); assay: α4β1-VCAM Cell Adhesion Assay; format: cell-based; conditions: thioether peptide dimers, Table 7; read-out: Cell Adhesion A4B1
Method: α4β1-VCAM Cell Adhesion Assay
Jurkat E6.1 cells (Sigma #88042803) were cultured in RPMI 1640 HEPES medium (Invitrogen #22400-089) supplemented with 10% serum (Fetal Bovine Serum, Invitrogen #16140-071), 1 mM sodium pyruvate (Invitrogen #11360-070), 2 mM L-glutamine (Invitrogen #25030-081) and Penicillin-Streptomycin (Invitrogen #15140-122) at 100 units of penicillin and 100 μg of streptomycin per ml. The cells were washed two times in DMEM medium (ATCC #30-2002) supplemented with 0.1% BSA, 10 mM HEPES pH 7 and 1 mM MnCl2. The cells were re-suspended in supplemented DMEM medium at a density of 4×10^6 cells/ml.
A Nunc MaxiSorp plate was coated with rh VCAM-1/CD106 Fc chimera (R&D #862-VC) at 400 ng per well in 50 μl per well in 1×PBS and incubated at 4° C. overnight. The solution was then removed by shaking, blocked with 250 μl per well PBS containing 1% BSA, and incubated at 37° C. for 1 hr. The solution was removed by shaking. Peptides were diluted by serial dilution in a final volume of 50 μl per well (2× concentration). To each well, 50 μl of cells (200,000 cells) were added and the plate was incubated at 37° C., 5% CO2 for 30-45 min to allow cell adhesion. The wells were washed manually three times (100 μl per wash) with supplemented DMEM. After the final wash, 100 μl/well of supplemented DMEM and 10 ul/well of MTT reagent (ATTC cat #30-1010K) were added. The plate was incubated at 37° C., 5% CO2 for 2-3 hrs until a purple precipitate is visible. 100 ul of Detergent Reagent (ATTC cat #30-1010K) is added to each well. The plate was covered from the light, wrapped in Parafilm to prevent evaporation, and left overnight at room temperature in the dark. The plate was shaken for 5 min and the absorbance at 570 nm is measured. To calculate the dose response, the absorbance value of control wells not containing cells was subtracted from each test well.

RPMI 8866 cells = molecular target: T2, RPMI 8866 cells (Homo sapiens, UniProt P13612+P26010); assay: α4β7-MAdCAM Cell Adhesion Assay; format: cell-based; conditions: thioether peptide dimers, Table 7; read-out: Cell-Adhesion A4B7
T2 sequence (P13612 34-1032): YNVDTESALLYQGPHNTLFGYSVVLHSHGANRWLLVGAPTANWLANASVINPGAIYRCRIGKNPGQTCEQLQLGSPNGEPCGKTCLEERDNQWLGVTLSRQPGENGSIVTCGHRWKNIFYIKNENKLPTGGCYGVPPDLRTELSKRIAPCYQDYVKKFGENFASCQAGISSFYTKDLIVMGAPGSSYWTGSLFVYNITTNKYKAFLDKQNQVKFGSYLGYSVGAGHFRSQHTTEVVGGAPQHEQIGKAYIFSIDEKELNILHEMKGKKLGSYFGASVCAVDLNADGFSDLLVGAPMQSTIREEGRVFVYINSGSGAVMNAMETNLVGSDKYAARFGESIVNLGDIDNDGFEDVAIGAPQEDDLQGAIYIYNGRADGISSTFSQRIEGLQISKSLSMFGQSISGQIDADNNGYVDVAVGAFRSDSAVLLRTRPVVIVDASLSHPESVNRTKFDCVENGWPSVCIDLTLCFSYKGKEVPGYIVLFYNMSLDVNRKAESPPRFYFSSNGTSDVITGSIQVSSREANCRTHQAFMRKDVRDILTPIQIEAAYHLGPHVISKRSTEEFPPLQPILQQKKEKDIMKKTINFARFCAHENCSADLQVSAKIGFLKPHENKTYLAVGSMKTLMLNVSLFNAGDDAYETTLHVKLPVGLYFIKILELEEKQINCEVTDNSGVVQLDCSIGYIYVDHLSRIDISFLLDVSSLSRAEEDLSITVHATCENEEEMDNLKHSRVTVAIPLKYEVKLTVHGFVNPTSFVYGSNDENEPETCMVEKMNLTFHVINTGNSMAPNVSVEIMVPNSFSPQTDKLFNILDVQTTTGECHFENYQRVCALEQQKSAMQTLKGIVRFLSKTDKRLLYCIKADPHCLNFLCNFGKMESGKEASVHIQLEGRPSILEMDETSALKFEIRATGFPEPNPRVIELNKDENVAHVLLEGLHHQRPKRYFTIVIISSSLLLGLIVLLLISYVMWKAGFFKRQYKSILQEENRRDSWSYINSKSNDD
T2 sequence (P26010 20-798): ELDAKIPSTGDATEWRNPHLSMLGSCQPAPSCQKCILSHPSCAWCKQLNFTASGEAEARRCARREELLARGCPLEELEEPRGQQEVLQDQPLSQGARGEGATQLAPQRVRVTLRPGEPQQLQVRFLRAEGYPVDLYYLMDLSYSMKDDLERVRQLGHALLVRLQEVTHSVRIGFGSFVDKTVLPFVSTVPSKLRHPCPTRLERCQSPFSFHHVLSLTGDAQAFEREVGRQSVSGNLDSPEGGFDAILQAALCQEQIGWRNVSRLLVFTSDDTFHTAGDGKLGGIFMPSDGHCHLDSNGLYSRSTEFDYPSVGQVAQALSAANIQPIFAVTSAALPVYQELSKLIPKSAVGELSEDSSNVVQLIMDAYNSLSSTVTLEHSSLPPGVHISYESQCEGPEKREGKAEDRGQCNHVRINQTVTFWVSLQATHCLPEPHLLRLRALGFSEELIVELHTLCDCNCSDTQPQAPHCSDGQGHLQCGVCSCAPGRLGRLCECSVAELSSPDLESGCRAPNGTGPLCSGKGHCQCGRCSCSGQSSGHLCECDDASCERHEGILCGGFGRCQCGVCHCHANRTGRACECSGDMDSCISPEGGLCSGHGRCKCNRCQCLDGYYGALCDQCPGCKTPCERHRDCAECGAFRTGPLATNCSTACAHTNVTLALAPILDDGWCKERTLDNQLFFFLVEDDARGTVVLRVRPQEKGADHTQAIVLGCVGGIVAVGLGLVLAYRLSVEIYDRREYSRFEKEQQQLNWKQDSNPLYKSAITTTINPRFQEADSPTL
Method in brief: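 Peptide inhibition of adhesion measured with MAdCAM-1/Fc chimera immobilised at 200 ng/well and MnCl2-activated (1 mM) RPMI 8866 cells, 30-45 min at 37° C. Adherent cells remaining after three washes detected by MTT reduction at 570 nm, corrected for no-cell wells, giving dose response.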

[1] = Simulated Intestinal Fluid (SIF) Stability Assay; format: in vitro ADME; conditions: pig, simulated intestinal fluid (SIF) with 1% porcine pancreatin, pH 6.5, porcine pancreatin, 37° C.; dimers, Table 7
Method in brief: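 Percent peptide remaining over time was measured by LC-MS/MS as the peak-area ratio to internal standard, and a first-order decay fit gave half-life. Digests contained 22 μM peptide and 1% pancreatin in pH 6.5 FaSSIF buffer at 37° C. Aliquots were quenched in organic solvent with formic acid.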

T1 sequence (P05556 21-728 limits assumed, one chain of several): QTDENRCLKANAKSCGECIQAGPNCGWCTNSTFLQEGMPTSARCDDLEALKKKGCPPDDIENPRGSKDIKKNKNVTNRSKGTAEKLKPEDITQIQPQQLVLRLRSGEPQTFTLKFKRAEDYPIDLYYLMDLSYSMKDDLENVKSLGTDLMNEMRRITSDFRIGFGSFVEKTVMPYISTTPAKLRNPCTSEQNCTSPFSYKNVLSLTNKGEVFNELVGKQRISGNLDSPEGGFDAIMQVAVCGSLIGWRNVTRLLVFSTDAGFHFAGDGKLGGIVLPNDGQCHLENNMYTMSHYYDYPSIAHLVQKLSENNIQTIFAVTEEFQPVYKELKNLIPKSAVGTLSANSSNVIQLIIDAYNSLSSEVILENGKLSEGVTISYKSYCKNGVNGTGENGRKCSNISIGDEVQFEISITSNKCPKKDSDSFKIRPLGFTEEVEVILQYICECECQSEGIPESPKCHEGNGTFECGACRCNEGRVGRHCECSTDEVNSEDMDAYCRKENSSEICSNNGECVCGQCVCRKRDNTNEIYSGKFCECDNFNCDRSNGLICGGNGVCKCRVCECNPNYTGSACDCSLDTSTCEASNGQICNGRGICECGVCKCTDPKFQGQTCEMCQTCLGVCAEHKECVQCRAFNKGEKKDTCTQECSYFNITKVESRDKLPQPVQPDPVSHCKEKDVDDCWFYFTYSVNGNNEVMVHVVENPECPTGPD
Sequence of Jurkat E6.1 cells (P05556 21-798, one chain of several): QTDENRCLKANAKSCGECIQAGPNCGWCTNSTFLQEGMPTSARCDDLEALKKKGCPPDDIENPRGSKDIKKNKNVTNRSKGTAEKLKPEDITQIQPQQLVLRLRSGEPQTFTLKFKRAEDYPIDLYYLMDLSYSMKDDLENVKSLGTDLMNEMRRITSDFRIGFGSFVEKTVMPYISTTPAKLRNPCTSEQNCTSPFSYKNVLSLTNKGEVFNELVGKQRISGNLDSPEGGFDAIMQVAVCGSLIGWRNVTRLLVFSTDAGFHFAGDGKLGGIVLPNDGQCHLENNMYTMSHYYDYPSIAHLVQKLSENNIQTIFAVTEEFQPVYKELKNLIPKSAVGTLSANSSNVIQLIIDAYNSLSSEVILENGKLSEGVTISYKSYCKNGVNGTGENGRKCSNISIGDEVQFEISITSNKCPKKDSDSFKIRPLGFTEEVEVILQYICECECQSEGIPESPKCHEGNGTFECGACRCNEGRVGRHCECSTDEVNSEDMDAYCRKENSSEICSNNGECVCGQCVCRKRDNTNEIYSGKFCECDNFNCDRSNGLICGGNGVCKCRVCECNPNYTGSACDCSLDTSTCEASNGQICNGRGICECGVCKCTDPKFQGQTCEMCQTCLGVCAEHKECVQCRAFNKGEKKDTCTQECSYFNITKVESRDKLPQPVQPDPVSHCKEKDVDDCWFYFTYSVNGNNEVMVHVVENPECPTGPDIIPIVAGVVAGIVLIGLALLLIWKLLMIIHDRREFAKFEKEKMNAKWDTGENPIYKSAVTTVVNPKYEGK

Structure (SMILES)	IC50 (α4β1) [nM]	IC50 (Jurkat E6.1 cells) [nM]	IC50 (RPMI 8866 cells) [nM]	half-life at 22 μM [1] [h]
CC(C)C[C@@H]1NC(=O)[C@H]([C@@H](C)O)NC(=O)[C@H](CC(=O)O)NC(=O)[C@H](CO)NC(=O)[C@H](CCCNC(=N)N)N(C)C(=O)c2ccccc2CSC(C)(C)[C@@H](C(=O)N[C@@H](Cc2ccc(O)cc2)C(=O)N[C@@H](CCC(=O)O)C(=O)N[C@H](CCCCN)C(N)=O)NC1=O [compound 168] (HELM PEPTIDE1{[meR].S.D.T.L.[Pen].Y.E.[dK].[am]}|CHEM1{[O=C(c1ccccc1C[*:2])[*:1]]}$PEPTIDE1,CHEM1,1:R1-1:R1|PEPTIDE1,CHEM1,6:R3-1:R2$$$V2.0)	25 to 100	> 100000		
CC(C)C[C@@H]1NC(=O)[C@H]([C@@H](C)O)NC(=O)[C@H](CC(=O)O)NC(=O)[C@H](CO)NC(=O)[C@H](CCCNC(=N)N)N(C)C(=O)c2ccccc2CSC(C)(C)[C@@H](C(=O)N[C@@H](Cc2c[nH]c3ccccc23)C(=O)N[C@H](CCC(=O)O)C(=O)N[C@@H](CCC(=O)O)C(=O)N[C@H](CCCCN)C(N)=O)NC1=O [compound 194] (HELM PEPTIDE1{[meR].S.D.T.L.[Pen].W.[dE].E.[dK].[am]}|CHEM1{[O=C(c1ccccc1C[*:2])[*:1]]}$PEPTIDE1,CHEM1,1:R1-1:R1|PEPTIDE1,CHEM1,6:R3-1:R2$$$V2.0)	100 to 1000		< 25	
CC(C)C[C@@H]1NC(=O)[C@H]([C@@H](C)O)NC(=O)[C@H](CC(=O)O)NC(=O)[C@H](CO)NC(=O)[C@H](CCCNC(=N)N)N(C)C(=O)c2ccccc2CSC(C)(C)[C@@H](C(=O)N[C@@H](Cc2ccc3ccccc3c2)C(=O)N[C@@H](CCC(=O)O)CC(=O)N[C@H](CCCCN)C(N)=O)NC1=O [compound 161]	25 to 100	> 100000		> 3
CC(C)C[C@@H]1NC(=O)[C@H]([C@@H](C)O)NC(=O)[C@H](CC(=O)O)NC(=O)[C@H](CO)NC(=O)[C@H](CCCNC(=N)N)N(C)C(=O)c2ccccc2CSC(C)(C)[C@@H](C(=O)N[C@@H](Cc2c[nH]c3ccccc23)C(=O)N[C@@H](CCC(=O)O)CC(=O)N[C@H](CCCCN)C(N)=O)NC1=O [compound 151] (HELM PEPTIDE1{[meR].S.D.T.L.[Pen].W.[O=C(O)CC[C@@H](CC(=O)[*:2])N[*:1]].[dK].[am]}|CHEM1{[O=C(c1ccccc1C[*:2])[*:1]]}$PEPTIDE1,CHEM1,1:R1-1:R1|PEPTIDE1,CHEM1,6:R3-1:R2$$$V2.0)	25 to 100			> 3
CC(C)C[C@@H]1NC(=O)[C@H]([C@@H](C)O)NC(=O)[C@H](CC(=O)O)NC(=O)[C@H](CO)NC(=O)[C@H](CCCNC(=N)N)N(C)C(=O)c2ccccc2CSC(C)(C)[C@@H](C(=O)N[C@@H](Cc2c[nH]c3ccccc23)C(=O)N[C@H](CCC(=O)O)C(=O)N[C@@H](CO)C(=O)N[C@H](CCCCN)C(N)=O)NC1=O [compound 191] (HELM PEPTIDE1{[meR].S.D.T.L.[Pen].W.[dE].S.[dK].[am]}|CHEM1{[O=C(c1ccccc1C[*:2])[*:1]]}$PEPTIDE1,CHEM1,1:R1-1:R1|PEPTIDE1,CHEM1,6:R3-1:R2$$$V2.0)		> 100000	< 25	
